Measured values published in patent publication US20200392116A1, “SUBSTITUTED HETEROCYCLES AS c-MYC TARGETING AGENTS” (NORTHWESTERN UNIVERSITY, priority 2019, published 2020).
Read-outs that look alike come from different tables or passages of the source.

Legend:
[1] = tested on: MV411 cells xenograft; test: AML xenograft model, combination with Ara-C; format: in vivo, CB17 SCID mice; conditions: AML mice xenograft
Description: CB17 SCID mice were inoculated with MV411 cells at the density of 5×10^6 suspended in PBS and matrigel (1:1). The mice were randomized based on tumor volume into 6 different groups after the tumor reached ˜200 to 500 mm^3. The mice were treated either with vehicle, NU031, NU975 alone or in combination with cytarabine (Ara-C). […] (See FIG. 17).

[2] = In vitro metabolism with mouse liver microsomes; format: in vitro ADME; conditions: % remaining of compound after 60 min treatment with mouse liver microsomes
Description: In vitro metabolism of NUCC-176242 and NUCC-176248 were tested using mouse liver microsomes and a mouse S9 fraction. (See FIG. 9).

[3] = Potency code of Table 2 (assay not stated)
[4] = Plasma protein binding (mouse); format: in vitro ADME
[5] = tested on: MYC transcriptional activity (c-Myc E-box-luciferase reporter, MycCap cells); test: MYC E-box luciferase reporter assay; format: cell-based; conditions: Mus musculus, Myc-CaP
Description: To test the compounds, we evaluated the in silico hits in a MYC E-Box luciferase reporter assay to measure the effects of these compounds (referred to as Min-1 to Min-32) on MYC transcriptional activity. […] (See FIG. 2).
MycCap cells stably expressing luciferase with CMV promoter (MycCap-luc) or c-Myc E-box-luciferase reporter (MycCap Ebox-luc) were plated at 10000 cells per well in 96 well white-wall plate. Serial dilutions of 361 were treated next day. At 4 hours of treatment, luminescence signal was determined immediately after adding 150 μg/ml of Luciferin to the well. (See FIG. 12).

[6] = tested on: CMV reporter; test: CMV reporter assay (control reporter beside the Ebox reporter); format: cell-based
[7] = class symbols, read-out: Ebox reporter: IC50
[8] = given as numeric bound, read-out: Ebox reporter: IC50
[9] = class symbols, read-out: Eboc reporter IC50

CCCCOc1ccc(-c2cc(C(F)(F)F)n[nH]2)c(O)c1-c1cc(C(F)(F)F)cc(C(F)(F)F)c1 [NU031]
anti-tumor effect in combination with Ara-C [1]: significant difference compared to control group

Cn1nc(C(F)(F)F)cc1-c1ccc(OCc2ccc(Cl)cc2)c(-c2ccc(Cl)c(C(F)(F)F)c2)c1O [NU975]
anti-tumor effect in combination with Ara-C [1]: significant difference compared to control group

Oc1cc(OCc2ccc(Cl)cc2)ccc1-c1n[nH]c(C(F)(F)F)c1Oc1ccccc1Cl [NUCC-0196342]
MLM % at 60 min [2]: 87.4% | Potency code [3]: ++++ (<10 ++++)

Cn1nc(C(F)(F)F)cc1-c1ccc(OCc2ccc(Cl)cc2)c(-c2cc(C(F)(F)F)cc(C(F)(F)F)c2)c1O [NUCC-0196361]
fraction unbound [4]: < 0.001 | MLM % at 60 min [2]: 72.9% | Potency code [3]: ++++ (<10 ++++)

Oc1c(-c2cc(C(F)(F)F)[nH]n2)ccc(OCc2ccc(Cl)cc2)c1-c1ccccc1Cl [NUCC-0196363]
MLM % at 60 min [2]: 88.6% | Potency code [3]: ++++ (<10 ++++)

COc1cccc(-c2c(-c3ccc(OCc4ccc(Cl)cc4)cc3O)n[nH]c2C(F)(F)F)c1 [NUCC-0198309]
MLM % at 60 min [2]: 74% | Potency code [3]: ++++ (<10 ++++)

Cn1nc(C(F)(F)F)cc1-c1ccc(OCc2ccc(Cl)cc2)c(-c2cccc(C#N)c2)c1O [NUCC-0198399]
MLM % at 60 min [2]: 80.3% | Potency code [3]: ++++ (<10 ++++)

CCc1c(OCc2ccc(Cl)cc2)ccc(-c2cc(C(F)(F)F)n[nH]2)c1O [NUCC-0200739]
MLM % at 60 min [2]: 46.4% | Potency code [3]: + (>40 +)

CCOC(=O)c1cc(-c2ccc(OCc3ccc(Cl)cc3)c(-c3cc(C(F)(F)F)cc(C(F)(F)F)c3)c2O)n[nH]1 [NUCC-0200972]
fraction unbound [4]: < 0.001 | MLM % at 60 min [2]: 60.3% | Potency code [3]: + (>40 +)

Cn1nc(C(F)(F)F)cc1-c1ccc(OCc2ccc(Cl)cc2)cc1C=O [NUCC-0200976]
fraction unbound [4]: < 0.001 | MLM % at 60 min [2]: 21.8% | Potency code [3]: + (>40 +)

Oc1c(-c2cc(C(F)(F)F)n[nH]2)ccc(OCCN2CCCC2)c1-c1cc(C(F)(F)F)cc(C(F)(F)F)c1 [NUCC-0201032]
fraction unbound [4]: < 0.001 | MLM % at 60 min [2]: 30.5% | Potency code [3]: + (>40 +)

CCCCCCOc1ccc(-c2cc(C(F)(F)F)n[nH]2)c(O)c1-c1cc(C(F)(F)F)cc(C(F)(F)F)c1 [NUCC-0201196]
MLM % at 60 min [2]: 66.6% | Potency code [3]: +++ (10-30 +++)

CCCCCCOc1ccc(-c2cc(C(F)(F)F)nn2C)c(O)c1-c1cncc(C#N)c1 [NUCC-0201207]
MLM % at 60 min [2]: 52.7% | Potency code [3]: +++ (10-30 +++)

CCCCOc1ccc(-c2cc(C(F)(F)F)n(C)n2)c(O)c1-c1cncc(C(F)(F)F)c1 [NUCC-0201209]
MLM % at 60 min [2]: 10.3% | Potency code [3]: + (>40 +)

Oc1c(-c2cc(C(F)(F)F)[nH]n2)ccc(Oc2ccc(Cl)cc2)c1-c1cc(C(F)(F)F)cc(C(F)(F)F)c1 [NUCC-0201223]
MLM % at 60 min [2]: 75.8% | Potency code [3]: ++++ (<10 ++++)

Cn1nc(C(F)(F)F)cc1-c1ccc(N(Cc2ccc(Cl)cc2)C(=O)c2cccc(Cl)c2)cc1O [NUCC-0202704]
IC50 [5, 7]: < 5 µM | IC50 [6]: > 50 µM

Cn1nc(C(F)(F)F)cc1-c1ccc(N(Cc2ccc(Cl)cc2)C(=O)c2cccc(S(C)(=O)=O)c2)cc1O [NUCC-0202705]
IC50 [5, 7]: < 5 µM | IC50 [6]: > 50 µM

Cn1nc(C(F)(F)F)cc1-c1ccc(N(Cc2ccc(Cl)cc2)C(=O)c2ccc(F)c(F)c2)cc1O [NUCC-0202706]
IC50 [5, 7]: < 5 µM | IC50 [6]: > 50 µM

Cn1nc(-c2ccc(N(Cc3ccc(Cl)cc3)C(=O)c3ccc(F)c(F)c3)cc2O)cc1C(F)(F)F [NUCC-0202707]
IC50 [5, 8]: > 50 µM | IC50 [6]: > 50 µM

Cn1nc(-c2ccc(N(Cc3ccc(Cl)cc3)C(=O)c3ccc(C(F)(F)F)cc3Cl)cc2O)cc1C(F)(F)F [NUCC-0202708]
IC50 [5, 8]: > 50 µM | IC50 [6]: > 50 µM

Cn1nc(C(F)(F)F)cc1-c1ccc(N(Cc2ccc(Cl)cc2)C(=O)c2ccc(Cl)cc2C(F)(F)F)cc1O [NUCC-0202709]
IC50 [5, 7]: 5 to 10 µM | IC50 [6]: > 50 µM

Cn1nc(-c2ccc(N(Cc3ccc(Cl)cc3)C(=O)c3ccc(Cl)cc3C(F)(F)F)cc2O)cc1C(F)(F)F [NUCC-0202710]
IC50 [5, 8]: > 50 µM | IC50 [6]: > 50 µM

Cn1nc(C(F)(F)F)cc1-c1ccc(N(Cc2ccc(Cl)cc2)C(=O)c2ccc(F)cc2)cc1O [NUCC-0202711]
IC50 [5, 7]: 5 to 10 µM | IC50 [6]: > 50 µM

Cn1nc(C(F)(F)F)cc1-c1ccc(N(Cc2ccc(Cl)cc2)C(=O)c2ccccc2Cl)cc1O [NUCC-0202712]
IC50 [5, 7]: 10 to 50 µM | IC50 [6]: > 50 µM

Cn1nc(C(F)(F)F)cc1-c1ccc(N(Cc2ccc(Cl)cc2)C(=O)c2ccc(C(F)(F)F)cc2)cc1O [NUCC-0202713]
IC50 [5, 7]: 5 to 10 µM | IC50 [6]: > 50 µM

Cn1nc(-c2ccc(N(Cc3ccc(Cl)cc3)C(=O)c3ccc(C(F)(F)F)cc3)cc2O)cc1C(F)(F)F [NUCC-0202714]
IC50 [5, 8]: > 50 µM | IC50 [6]: > 50 µM

Cn1nc(C(F)(F)F)cc1-c1ccc(N(Cc2ccc(Cl)cc2)C(=O)c2ccccc2F)cc1O [NUCC-0202715]
IC50 [5, 7]: 5 to 10 µM | IC50 [6]: > 50 µM

Cn1nc(-c2ccc(N(Cc3ccc(Cl)cc3)C(=O)c3ccccc3F)cc2O)cc1C(F)(F)F [NUCC-0202716]
IC50 [5, 8]: > 50 µM | IC50 [6]: > 50 µM

COc1ccc(C(=O)N(Cc2ccc(Cl)cc2)c2ccc(-c3cc(C(F)(F)F)nn3C)c(O)c2)cc1 [NUCC-0202717]
IC50 [5, 7]: 5 to 10 µM | IC50 [6]: > 50 µM

COc1ccc(C(=O)N(Cc2ccc(Cl)cc2)c2ccc(-c3cc(C(F)(F)F)n(C)n3)c(O)c2)cc1 [NUCC-0202718]
IC50 [5, 8]: > 50 µM | IC50 [6]: > 50 µM

Cn1nc(-c2ccc(N(Cc3ccc(Cl)cc3)C(=O)c3ccccc3C(F)(F)F)cc2O)cc1C(F)(F)F [NUCC-0202719]
IC50 [5, 8]: > 50 µM | IC50 [6]: > 50 µM

Cn1nc(C(F)(F)F)cc1-c1ccc(N(Cc2ccc(Cl)cc2)C(=O)c2ccc(C(F)(F)F)cc2Cl)cc1O [NUCC-0202720]
IC50 [5, 7]: 5 to 10 µM | IC50 [6]: > 50 µM

Cn1nc(-c2ccc(N(Cc3ccc(Cl)cc3)C(=O)c3cccc(S(C)(=O)=O)c3)cc2O)cc1C(F)(F)F [NUCC-0202721]
IC50 [5, 8]: > 50 µM | IC50 [6]: > 50 µM

Cn1nc(-c2ccc(N(Cc3ccc(Cl)cc3)C(=O)c3cncc(C#N)c3)cc2O)cc1C(F)(F)F [NUCC-0202722]
IC50 [5, 8]: > 50 µM | IC50 [6]: > 50 µM

Cn1nc(C(F)(F)F)cc1-c1ccc(N(Cc2ccc(Cl)cc2)C(=O)c2ccccc2C(F)(F)F)cc1O [NUCC-0202723]
IC50 [5, 7]: 5 to 10 µM | IC50 [6]: > 50 µM

Cn1nc(C(F)(F)F)cc1-c1ccc(N(Cc2ccc(Cl)cc2)C(=O)c2cncc(C#N)c2)cc1O [NUCC-0202724]
IC50 [5, 7]: 5 to 10 µM | IC50 [6]: > 50 µM

Cn1nc(-c2ccc(N(Cc3ccc(Cl)cc3)C(=O)c3ccc4nccn4c3)cc2O)cc1C(F)(F)F [NUCC-0202725]
IC50 [5, 7]: 10 to 50 µM | IC50 [6]: > 50 µM

Cn1nc(C(F)(F)F)cc1-c1ccc(CNc2ccc(Cl)c(C(F)(F)F)c2)cc1O [NUCC-0202980]
IC50 [5, 9]: 10 to 50 µM | IC50 ([6]; class symbols): 10 to 50 µM

Cn1nc(-c2ccc(CNc3ccc(Cl)c(C(F)(F)F)c3)cc2O)cc1C(F)(F)F [NUCC-0202981]
IC50 [5, 9]: 10 to 50 µM | IC50 ([6]; class symbols): > 50 µM

Cn1nc(C(F)(F)F)cc1-c1ccc(C(=O)Nc2ccc(Cl)c(C(F)(F)F)c2)cc1O [NUCC-0202984]
IC50 [5, 9]: < 5 µM | IC50 ([6]; class symbols): 10 to 50 µM

Cn1nc(-c2ccc(C(=O)Nc3ccc(Cl)c(C(F)(F)F)c3)cc2O)cc1C(F)(F)F [NUCC-0202985]
IC50 [5, 9]: > 50 µM | IC50 ([6]; class symbols): > 50 µM

Oc1c(-c2cc(C(F)(F)F)n[nH]2)c(Cl)cc(OCc2ccc(Cl)cc2)c1-c1ccc(Cl)c(C(F)(F)F)c1 [NUCC-0202986]
IC50 [5, 9]: < 5 µM | IC50 ([6]; class symbols): 10 to 50 µM

Cn1nc(C(F)(F)F)cc1-c1c(Cl)cc(OCc2ccc(Cl)cc2)c(-c2ccc(Cl)c(C(F)(F)F)c2)c1O [NUCC-0202987]
IC50 [5, 9]: < 5 µM | IC50 ([6]; class symbols): > 50 µM

Cn1nc(-c2c(Cl)cc(OCc3ccc(Cl)cc3)c(-c3ccc(Cl)c(C(F)(F)F)c3)c2O)cc1C(F)(F)F [NUCC-0202988]
IC50 [5, 9]: > 50 µM | IC50 ([6]; class symbols): > 50 µM

CN(C(=O)c1ccc(-c2cc(C(F)(F)F)n[nH]2)c(O)c1)c1ccc(Cl)c(C(F)(F)F)c1 [NUCC-0202989]
IC50 [5, 9]: 10 to 50 µM | IC50 ([6]; class symbols): 10 to 50 µM

CN(C(=O)c1ccc(-c2cc(C(F)(F)F)nn2C)c(O)c1)c1ccc(Cl)c(C(F)(F)F)c1 [NUCC-0202990]
IC50 [5, 9]: 10 to 50 µM | IC50 ([6]; class symbols): > 50 µM

CN(C(=O)c1ccc(-c2cc(C(F)(F)F)n(C)n2)c(O)c1)c1ccc(Cl)c(C(F)(F)F)c1 [NUCC-0202991]
IC50 [5, 9]: 10 to 50 µM | IC50 ([6]; class symbols): > 50 µM

O=C(Nc1ccc(Cl)c(C(F)(F)F)c1)c1ccc(-c2cc(C(F)(F)F)n[nH]2)c(O)c1 [NUCC-0202992]
IC50 [5, 9]: 5 to 10 µM | IC50 ([6]; class symbols): 10 to 50 µM

Oc1cc(CNc2ccc(Cl)c(C(F)(F)F)c2)ccc1-c1cc(C(F)(F)F)n[nH]1 [NUCC-0202993]
IC50 [5, 9]: 5 to 10 µM | IC50 ([6]; class symbols): 10 to 50 µM
